# Data as given in patent US5133975A, “Method for in vivo inactivation of blood borne HIV virus using a mixture of ozone and oxygen” (RJH and Company, Inc., priority 1989, dated 1992).
# Key:
# herpes simplex = test: remission of herpes lesions in patient (Example 3)
# poliovirus 2 = details: in vitro, pure ozone; cited from earlier work
# mammals = details: overdoses of pure O3; cited from earlier work
# enteroviruses = details: in vitro, pure ozone; cited from earlier work
# coliform = details: in vitro, pure ozone; cited from earlier work
# Aeromonas hydrophilia = details: in vitro, pure ozone; cited from earlier work
# coxsachie = details: in vitro, pure ozone; cited from earlier work
# mice = details: 3 hours of inhalation; cited from earlier work
# human subjects = details: 0.24 ppm for two hours; cited from earlier work
# S. aureus = details: in vitro, pure ozone; cited from earlier work
smiles,measurement,setting,value
Nc1nc2c(ncn2COCCO)c(=O)[nH]1 [acyclovir],herpes lesions during treatment with acyclovir,herpes simplex,had persisted
O=[O+][O-] [ozone],inactivation of poliovirus 2,poliovirus 2,inactivates
same,signs of overdose,mammals,pulmonary edema and hemorrhaging
same,inactivation of enteroviruses,enteroviruses,inactivates
same,inactivation of coliform,coliform,inactivates
same,inactivation of Aeromonas hydrophilia,Aeromonas hydrophilia,inactivates
same,inactivation of coxsachie,coxsachie,inactivates
same,LD50,mice,22 ppm
same,cell functions,human subjects,inhibition of certain cell functions
same,enzyme activities,human subjects,wide fluctuations in enzyme activities
same,respiratory capacity,human subjects,drops in respiratory capacity
same,inactivation of S. aureus,S. aureus,inactivates
